In US12601742B2, “Methods and materials for treating endometrial cancer by assessing combinations of mutations and expression levels” (Mayo Foundation for Medical Education and Research, priority 2020, dated 2026):

Columns and labels:
ARK-2 cell line = assay: MTT cell viability assay and synergy assessment, ARK-2; type: cell-based; conditions: constant ratio, 72 hours; for combinatory effect of carboplatin with GSK2141795 (cell viability): ARK-2, simultaneous exposure
Description: (§1) HEC-1B (Type I) and ARK-2 (Type II), platinum-insensitive EC cell lines, were used in this study. Both cell lines were cultured in DMEM (Dulbecco's Modified Eagle's Medium) media containing 10% FBS, 100 μg/mL streptomycin, 100 units/mL penicillin, and 2 mM L-glutamine. Cells were maintained in incubator at 37° C. in an atmosphere containing 5% CO2. Three thousand cells/well were seeded in triplicate in 96-well plates and cells were treated with increasing concentrations of panobinostat, GSK2141795, and carboplatin for 72 hours, respectively. CellTiter 96® Aqueous One Solution Cell Proliferation Assay was performed according to the manual to assess the half maximum inhibitory concentration (IC50). Constant ratio studies were carried out to investigate the combinatory effect of carboplatin with panobinostat and GSK2141795 in both HEC-1B and ARK-2 cell lines.

HEC-1B cell line = assay: MTT cell viability assay and synergy assessment, HEC-1B; type: cell-based; conditions: constant ratio, 72 hours; for combinatory effect of carboplatin with GSK2141795 (cell viability): simultaneous exposure
Description: as §1

Cn1ncc(Cl)c1-c1cc(C(=O)N[C@H](CN)Cc2ccc(F)c(F)c2)oc1Cl [GSK2141795]
synergism: combinatory effect of carboplatin with GSK2141795 (cell viability) (ARK-2 cell line) | combinatory effect of carboplatin with GSK2141795 (cell viability) (HEC-1B cell line)

N.N.O=C([O-])C1(C(=O)[O-])CCC1.[Pt+2] [carboplatin]
synergism: combinatory effect of carboplatin with GSK2141795 (cell viability) (ARK-2 cell line) | combinatory effect of carboplatin with panobinostat (cell viability) (ARK-2 cell line; ARK-2, varying concentrations) | combinatory effect of carboplatin with GSK2141795 (cell viability) (HEC-1B cell line) | combinatory effect of carboplatin with panobinostat (cell viability) (HEC-1B cell line; varying concentrations)
